Assay results reported in article PMC10709440, “High-throughput ligand profile characterization in novel cell lines expressing seven heterologous insect olfactory receptors for the detection of volatile plant biomarkers” (Scientific Reports, 2023).
Where two headings read alike, the source gives them in different places.

What was measured:
[1] = test system: OR71a; design: method as in earlier work; details: DoOR database value, ref DoOR, cited from earlier work
[2] = test system: OR49b; design: method as in earlier work; details: DoOR database value, ref DoOR, cited from earlier work
[3] = test system: OR98a; design: method as in earlier work; details: DoOR database value, ref DoOR, cited from earlier work
[4] = test system: OR85b; design: method as in earlier work; details: DoOR database value, ref DoOR, cited from earlier work
[5] = test system: OR47a; design: method as in earlier work; details: DoOR database value, ref DoOR, cited from earlier work
[6] = test system: OR10a; design: method as in earlier work; details: DoOR database value, ref DoOR, cited from earlier work
[7] = target: T1, Drosophila OR49b (Drosophila melanogaster, UniProt Q9V6H2); assay: cell-based; details: for activation at 1 µM / activation at 10 µM / activation at 100 µM: HEK293; for Average response / OR49b response (VUAA1-normalized) at 1 μM / OR49b response (VUAA1-normalized) at 10 μM / OR49b response (VUAA1-normalized) at 100 μM: OR49b cell line; for Average response: mean of biological replicates; for DF norm AVERAGE OR49b: threshold 0.05, below shown as 0
T1 construct: expressed in transfected cells
T1 sequence (Q9V6H2 1-375): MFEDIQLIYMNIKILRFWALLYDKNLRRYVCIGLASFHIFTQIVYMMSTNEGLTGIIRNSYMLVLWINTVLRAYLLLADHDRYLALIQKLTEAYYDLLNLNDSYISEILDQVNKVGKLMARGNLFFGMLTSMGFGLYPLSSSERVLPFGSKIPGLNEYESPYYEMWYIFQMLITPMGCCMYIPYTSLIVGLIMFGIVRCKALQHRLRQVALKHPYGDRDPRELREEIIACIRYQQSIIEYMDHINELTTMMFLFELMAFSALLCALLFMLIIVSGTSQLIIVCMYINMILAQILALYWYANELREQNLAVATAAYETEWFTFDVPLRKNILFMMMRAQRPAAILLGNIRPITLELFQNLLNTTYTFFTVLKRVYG
T1 sequence (Q9VNB5 1-486 partner): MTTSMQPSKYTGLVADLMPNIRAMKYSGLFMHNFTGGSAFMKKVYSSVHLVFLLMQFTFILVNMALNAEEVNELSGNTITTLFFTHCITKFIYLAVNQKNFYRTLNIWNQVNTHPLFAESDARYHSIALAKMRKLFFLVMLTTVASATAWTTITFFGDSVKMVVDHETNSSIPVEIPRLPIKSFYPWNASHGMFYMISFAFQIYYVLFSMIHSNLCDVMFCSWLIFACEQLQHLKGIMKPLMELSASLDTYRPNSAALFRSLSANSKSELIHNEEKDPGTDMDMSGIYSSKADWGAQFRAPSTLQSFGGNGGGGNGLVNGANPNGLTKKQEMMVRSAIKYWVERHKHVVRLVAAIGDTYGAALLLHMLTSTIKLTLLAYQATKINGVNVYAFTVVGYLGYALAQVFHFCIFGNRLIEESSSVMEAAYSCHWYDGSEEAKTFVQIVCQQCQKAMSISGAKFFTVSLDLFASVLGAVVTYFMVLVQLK
Method in brief: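 HEK293 lines stably expressing each Drosophila OR with GCaMP6, doxycycline-induced (1 μg/mL) 48 or 72 h. Fluorescence recorded 5 s baseline then 30 s after VOC injection at pH 7.3; ΔF=(FMAX−F0)/F0, normalized to 50 µM VUAA1 response per line, triplicate wells averaged; concentration series 0.01–100 μM.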

[8] = test system: OR13a; design: method as in earlier work; details: DoOR database value, ref DoOR, cited from earlier work
[9] = VOC concentration 1 μM, read-out: OR49b response (VUAA1-normalized response)
[10] = VOC concentration 10 μM, read-out: OR49b response (VUAA1-normalized response)
[11] = VOC concentration 100 μM, read-out: OR49b response (VUAA1-normalized response)
[12] = ligand concentration 1 (unit not given)
[13] = ligand concentration 10 (unit not given)
[14] = ligand concentration 100 (unit not given)
[15] = 1 μM VOC, 50 μM VUAA1 = 1, read-out: OR49b Average response (VUAA1-normalized)
[16] = 10 μM VOC, 50 μM VUAA1 = 1, read-out: OR49b Average response (VUAA1-normalized)
[17] = 100 μM VOC, 50 μM VUAA1 = 1, read-out: OR49b Average response (VUAA1-normalized)

Compound	OR71a DoOR response [1]	OR49b DoOR response [2]	OR98a DoOR response [3]	OR85b DoOR response [4]	OR47a DoOR response [5]	OR10a DoOR response [6]	activation at 1 µM [7, 9] [%]	activation at 10 µM [7, 10] [%]	activation at 100 µM [7, 11] [%]	Average response ([7]; odorant cc. 1 µM)	Average response ([7]; odorant cc. 10 µM)	Average response ([7]; odorant cc. 100 µM)	DF norm AVERAGE OR49b [7, 12]	DF norm AVERAGE OR49b [7, 13]	DF norm AVERAGE OR49b [7, 14]	OR13a DoOR response [8]	activation at 1 µM [7, 15] [%]	activation at 10 µM [7, 16] [%]	activation at 100 µM [7, 17] [%]	OR71a DoOR response ([1]; OR71a)	further results
CC1=CC[C@@H](C(C)(C)O)CC1 [alpha-terpineol]	0.008	0.006	0.033	0.11	0.018	-0.005	0	0	0	0.00	0.00	0.0245	0	0	0	0.023	–	–	–	–	–
O=Cc1ccccc1 [benzaldehyde]	0.025	0.09	0.13	0.07	0.06	0.22	0	0	23	0.00	0.0283	0.23	0	0	0.2265	0.025	0	3	23	–	–
CCOC(=O)c1ccccc1 [ethyl benzoate]	0.19	0.002	0.78	-0.014	0.06	0.68	6	0	0	0.06	0.0464	0.0169	0.05937	0	0	0.043	–	–	–	–	–
CCCC(=O)OCC [ethyl butyrate]	0.046	-0.002	0.25	0.21	0.26	0.025	0	0	0	0.00	0.00	0.00	0	0	0	0.11	–	–	–	–	–
C=CCc1ccc(O)c(OC)c1 [eugenol]	0.73	0.002	0.15	0.053	-0.013	0.15	0	0	0	0.05	0.00	0.00	0	0	0	0.024	–	–	–	–	–
CC(=O)OCCC(C)C [isopentyl acetate]	0.03	0.027	0.64	0.34	0.41	0.42	0	0	15	0.00	0.00	0.15	0	0	0.1516	0.15	0	0	15	–	–
COC(=O)c1ccccc1O [methyl salicylate]	–	–	–	–	–	–	–	–	–	0.0269	0.00333	0.12	0	0	0.1238	–	3	0	12	0.47	OR49b DoOR response ([2]; OR49b): 0.05; OR98a DoOR response ([3]; OR98a): 0.034; OR85b DoOR response ([4]; OR85b): 0.009; OR47a DoOR response ([5]; OR47a): -0.032; OR10a DoOR response ([6]; OR10a): 0.75; OR49b response (VUAA1-normalized) at 1 μM ([7]; VOC concentration 1 μM): 0.00; OR49b response (VUAA1-normalized) at 10 μM ([7]; VOC concentration 10 μM): 0.00; OR49b response (VUAA1-normalized) at 100 μM ([7]; VOC concentration 100 μM): 0.12; OR13a DoOR response ([8]; OR13a): 0.07
OCCc1ccccc1 [phenethyl alcohol]	–	–	–	–	–	–	–	–	–	0.0257	0.00	0.09	0	0	0.09318	–	–	–	–	0.17	OR49b DoOR response ([2]; OR49b): 0.09; OR98a DoOR response ([3]; OR98a): -0.01; OR85b DoOR response ([4]; OR85b): 0.006; OR47a DoOR response ([5]; OR47a): 0.009; OR10a DoOR response ([6]; OR10a): 0.014; OR49b response (VUAA1-normalized) at 1 μM ([7]; VOC concentration 1 μM): 0.00; OR49b response (VUAA1-normalized) at 10 μM ([7]; VOC concentration 10 μM): 0.00; OR49b response (VUAA1-normalized) at 100 μM ([7]; VOC concentration 100 μM): 0.09; OR13a DoOR response ([8]; OR13a): 0.12
CCCOC(C)=O [propyl acetate]	–	–	–	–	–	–	–	–	–	0.00	0.00	0.014	0	0	0	–	–	–	–	0.04	OR49b DoOR response ([2]; OR49b): 0.023; OR98a DoOR response ([3]; OR98a): 0.50; OR85b DoOR response ([4]; OR85b): 0.49; OR47a DoOR response ([5]; OR47a): 0.68; OR10a DoOR response ([6]; OR10a): 0.18; OR49b response (VUAA1-normalized) at 1 μM ([7]; VOC concentration 1 μM): 0.00; OR49b response (VUAA1-normalized) at 10 μM ([7]; VOC concentration 10 μM): 0.00; OR49b response (VUAA1-normalized) at 100 μM ([7]; VOC concentration 100 μM): 0.00; OR13a DoOR response ([8]; OR13a): 0.14
